{"source": "patent US7649096B2", "about": "“Process for the preparation of a crystalline form of (S)-N [[3-(3-fluoro-4(4-morpholinyl) phenyl]-2-oxo-5-oxazolidinyl] methyl] acetamide” (Glenmark Pharmaceuticals Limited, priority 2005, dated 2010)", "origin": "cited, not measured here", "key": {"staphylococci": {"tested_on": "staphylococci", "conditions": "against staphylococci"}, "streptococci": {"tested_on": "streptococci", "conditions": "majority of strains"}, "enterococci": {"tested_on": "enterococci", "conditions": "against enterococci"}}, "data": [{"smiles": "CC(=O)NC[C@H]1CN(c2ccc(N3CCOCC3)c(F)c2)C(=O)O1", "note": "[linezolid, (S)-N-[[3-[3-fluoro-4-(4-morpholinyl)phenyl]-2-oxo-5-oxazolidinyl]methyl]acetamide]", "values": [{"measurement": "results of time-kill studies (bacteriostatic or bactericidal)", "setting": "staphylococci", "value": "bacteriostatic"}, {"measurement": "results of time-kill studies (bacteriostatic or bactericidal)", "setting": "streptococci", "value": "bactericidal for the majority of strains"}, {"measurement": "results of time-kill studies (bacteriostatic or bactericidal)", "setting": "enterococci", "value": "bacteriostatic"}]}]}
